According to patent US11306331B2, “Processes for the production of hydroxycinnamic acids using polypeptides having tyrosine ammonia lyase activity” (CysBio ApS, priority 2014, dated 2022):

Columns and labels:
[1] = molecular target: T1, Saccharothrix espanaensis SeSam8 (Protein GI 433607630), His-tagged (N-terminal tag SEQ ID NO: 11) (Saccharothrix espanaensis, UniProt Q2EYY5); test: In vitro kinetics of purified His-tagged SeSam8 (tyrosine/phenylalanine ammonia lyase activity, absorbance at 315/295 nm); assay type: biochemical
T1 sequence (Q2EYY5 1-510): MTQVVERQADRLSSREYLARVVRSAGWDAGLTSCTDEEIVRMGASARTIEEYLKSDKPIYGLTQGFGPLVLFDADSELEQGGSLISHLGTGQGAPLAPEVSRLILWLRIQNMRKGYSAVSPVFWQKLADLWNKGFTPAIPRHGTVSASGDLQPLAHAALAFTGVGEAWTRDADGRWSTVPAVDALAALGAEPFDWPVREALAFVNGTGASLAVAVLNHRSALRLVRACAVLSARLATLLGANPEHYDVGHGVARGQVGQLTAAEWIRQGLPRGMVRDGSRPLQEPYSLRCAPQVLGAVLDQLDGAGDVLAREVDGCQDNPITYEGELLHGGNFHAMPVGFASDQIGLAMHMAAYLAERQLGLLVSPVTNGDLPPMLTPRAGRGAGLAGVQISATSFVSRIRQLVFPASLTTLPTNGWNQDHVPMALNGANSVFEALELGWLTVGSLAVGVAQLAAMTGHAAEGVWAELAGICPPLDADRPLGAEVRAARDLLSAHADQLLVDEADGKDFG
Source text: Four of the enzymes were further purified by His-tag purification as follows. A DNA linker (5′ phosphorylated oligonucleotides CBJP559 and CBJP560, Table 5) was inserted in place of the sequence between the NdeI and BgIII site in plasmid pCDFDuet-1. This would result in the addition of the amino acids MAHHHHHHENLYFQ (SEQ ID NO: 11) to the N-terminal end of the polypeptides. The resulting plasmid was amplified with primers CBJP575 and CBJP576 (table 5) and the genes were amplified and combined using the Gibson reaction (New England Biolabs). The PCR amplification used the same reverse primers as in example 1, but the forward primers matching the His-tag site of the linker (Table 5). Plasmids carrying the genes (e.g. FjXAL, FIG. 4) were transformed into electrocompetent E. coli BL21(DE3)pLysS cells (Life Technologies) and selected on LB plates containing 50 ug/mL streptomycin.
Strains expressing His-tagged versions of the enzymes were grown in LB media overnight at 37° C. and diluted into fresh LB media with 1 mM IPTG and growth was propagated overnight (approximately 18 h) at 30° C. […]
(§1) Enzymatic assays were performed in 200 μL volumes in wells in a UV transparent 96-well plate, by following the increase in absorbance at 315 nm (pHCA) or 295 nm (CA). […] The enzymatic activity was calculated as U/g, where U is defined as μmol substrate converted per minute.

[2] = molecular target: T2, Herpetosiphon aurantiacus HaXAL1 tyrosine ammonia lyase (Protein GI 159898407), SEQ ID NO: 2, His-tagged (N-terminal tag SEQ ID NO: 11) (Herpetosiphon aurantiacus, UniProt A9AUJ9); test: In vitro kinetics of purified His-tagged HaXAL1 (tyrosine/phenylalanine ammonia lyase activity, absorbance at 315/295 nm); assay type: biochemical
T2 sequence (A9AUJ9 1-552): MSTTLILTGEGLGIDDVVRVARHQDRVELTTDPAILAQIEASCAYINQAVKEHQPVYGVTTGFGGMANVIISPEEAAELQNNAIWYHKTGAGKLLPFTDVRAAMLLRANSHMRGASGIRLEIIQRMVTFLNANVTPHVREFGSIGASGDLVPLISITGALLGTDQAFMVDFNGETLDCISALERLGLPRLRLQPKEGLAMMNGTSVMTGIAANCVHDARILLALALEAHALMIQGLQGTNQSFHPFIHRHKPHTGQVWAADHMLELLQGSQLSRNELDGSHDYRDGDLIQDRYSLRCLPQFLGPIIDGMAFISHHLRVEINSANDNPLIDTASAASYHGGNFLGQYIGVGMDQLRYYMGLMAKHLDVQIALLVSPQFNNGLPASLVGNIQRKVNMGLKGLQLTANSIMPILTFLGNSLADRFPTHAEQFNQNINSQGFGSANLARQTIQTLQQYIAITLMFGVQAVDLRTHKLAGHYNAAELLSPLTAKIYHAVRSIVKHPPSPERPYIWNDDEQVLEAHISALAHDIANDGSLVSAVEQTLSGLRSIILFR
Protocol: The tyrosine ammonia lyase activity may for instance be determined in accordance to the following method: Enzymatic assays are performed in 200 μL volumes in wells in a UV transparent 96-well plate, by following the increase in absorbance at 315 nm (pHCA) using spectrophotometry or HPLC with UV detection. The reaction mixtures contain 2 μg of purified protein and are initiated by adding 1 mM tyrosine or 6 mM after equilibration to 30° C. The enzymatic activity is calculated as U/g, where U is defined as μmol substrate converted per minute. Negative controls contain no purified protein. Kinetic constants Km and vmax are determined from assays containing 1.56 μM to 200 μM tyrosine. See also Kyndt et al. (2002).
Four of the enzymes were further purified by His-tag purification as follows. A DNA linker (5′ phosphorylated oligonucleotides CBJP559 and CBJP560, Table 5) was inserted in place of the sequence between the NdeI and BgIII site in plasmid pCDFDuet-1. This would result in the addition of the amino acids MAHHHHHHENLYFQ (SEQ ID NO: 11) to the N-terminal end of the polypeptides. […]
as §1

[3] = 30° C, 1.56 μM to 200 μM tyrosine or 193 μM to 25 mM phenylalanine
[4] = ratio of Kcat/Km for Tyr over Phe

`N[C@@H](Cc1ccc(O)cc1)C(=O)O` [Tyr, tyrosine] gave a Kcat [1, 3] of 0.014 s⁻¹, a TAL/PAL [1, 4] of 730 and a Kcat [2, 3] of 0.0517 s⁻¹. It also gave a TAL/PAL [2, 4] of 540.
